Key:
Details in all cases: Compound concentration 10 µM
[1] = target: D(3) dopamine receptor (Homo sapiens) (UniProt P35462)
Description: PDSP Primary Binding target: DRD3 - Compounds are tested at 10 uM concentration, plate are incubated at room temperature in the dark for 90 minutes. Reaction are stopped by vacuum filtration onto 0.3% polyethyleneimine soaked filter mats using Filtermate harvester. Scintilation cocktail is then melted onto microwave-dried filters on a hot plate and the radio activity is counted in Microbia counter.

[2] = target: Sigma non-opioid intracellular receptor 1 (Homo sapiens) (UniProt Q99720)
Description: PDSP Primary Binding target: SIGMAR1 - Compounds are tested at 10 uM concentration, plate are incubated at room temperature in the dark for 90 minutes. Reaction are stopped by vacuum filtration onto 0.3% polyethyleneimine soaked filter mats using Filtermate harvester. Scintilation cocktail is then melted onto microwave-dried filters on a hot plate and the radio activity is counted in Microbia counter.

[3] = target: Sodium-dependent serotonin transporter (Homo sapiens) (UniProt P31645)
Description: PDSP Primary Binding target: SLC6A4 - Compounds are tested at 10 uM concentration, plate are incubated at room temperature in the dark for 90 minutes. Reaction are stopped by vacuum filtration onto 0.3% polyethyleneimine soaked filter mats using Filtermate harvester. Scintilation cocktail is then melted onto microwave-dried filters on a hot plate and the radio activity is counted in Microbia counter.

[4] = target: Histamine H2 receptor (Homo sapiens) (UniProt P25021)
Description: PDSP Primary Binding target: HRH2 - Compounds are tested at 10 uM concentration, plate are incubated at room temperature in the dark for 90 minutes. Reaction are stopped by vacuum filtration onto 0.3% polyethyleneimine soaked filter mats using Filtermate harvester. Scintilation cocktail is then melted onto microwave-dried filters on a hot plate and the radio activity is counted in Microbia counter.

[5] = target: T1, Muscarinic acetylcholine receptor M5 (Homo sapiens) (UniProt P08912)
T1 sequence (whole entry): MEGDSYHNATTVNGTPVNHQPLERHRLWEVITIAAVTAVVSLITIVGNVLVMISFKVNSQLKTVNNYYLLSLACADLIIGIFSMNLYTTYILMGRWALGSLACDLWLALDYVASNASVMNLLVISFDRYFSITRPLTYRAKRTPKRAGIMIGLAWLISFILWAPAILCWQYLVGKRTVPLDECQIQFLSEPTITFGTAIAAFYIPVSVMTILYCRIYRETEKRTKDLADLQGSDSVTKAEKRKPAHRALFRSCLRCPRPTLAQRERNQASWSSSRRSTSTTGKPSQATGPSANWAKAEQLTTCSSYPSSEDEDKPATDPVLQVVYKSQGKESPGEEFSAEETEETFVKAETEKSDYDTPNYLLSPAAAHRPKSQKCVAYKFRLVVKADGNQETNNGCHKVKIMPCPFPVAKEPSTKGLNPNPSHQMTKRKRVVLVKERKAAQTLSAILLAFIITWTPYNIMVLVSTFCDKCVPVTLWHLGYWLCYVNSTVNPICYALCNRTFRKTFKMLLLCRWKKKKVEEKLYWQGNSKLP
Description: PDSP Primary Binding target: CHRM5 - Compounds are tested at 10 uM concentration, plate are incubated at room temperature in the dark for 90 minutes. Reaction are stopped by vacuum filtration onto 0.3% polyethyleneimine soaked filter mats using Filtermate harvester. Scintilation cocktail is then melted onto microwave-dried filters on a hot plate and the radio activity is counted in Microbia counter.

[6] = target: Histamine H1 receptor (Homo sapiens) (UniProt P35367)
Description: PDSP Primary Binding target: HRH1 - Compounds are tested at 10 uM concentration, plate are incubated at room temperature in the dark for 90 minutes. Reaction are stopped by vacuum filtration onto 0.3% polyethyleneimine soaked filter mats using Filtermate harvester. Scintilation cocktail is then melted onto microwave-dried filters on a hot plate and the radio activity is counted in Microbia counter.

[7] = target: T2, Alpha-2C adrenergic receptor (Homo sapiens) (UniProt P18825)
T2 sequence (whole entry): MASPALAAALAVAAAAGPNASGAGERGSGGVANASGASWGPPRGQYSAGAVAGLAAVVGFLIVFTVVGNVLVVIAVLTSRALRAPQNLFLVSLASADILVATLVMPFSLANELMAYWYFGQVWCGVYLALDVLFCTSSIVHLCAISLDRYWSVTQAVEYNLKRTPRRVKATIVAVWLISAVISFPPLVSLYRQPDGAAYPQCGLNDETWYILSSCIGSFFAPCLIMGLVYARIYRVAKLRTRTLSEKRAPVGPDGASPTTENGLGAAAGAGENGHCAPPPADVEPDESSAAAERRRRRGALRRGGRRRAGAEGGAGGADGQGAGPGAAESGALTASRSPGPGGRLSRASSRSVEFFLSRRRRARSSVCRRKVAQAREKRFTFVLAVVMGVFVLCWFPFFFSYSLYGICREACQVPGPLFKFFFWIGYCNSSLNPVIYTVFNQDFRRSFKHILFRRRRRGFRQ
Description: PDSP Primary Binding target: ADRA2C - Compounds are tested at 10 uM concentration, plate are incubated at room temperature in the dark for 90 minutes. Reaction are stopped by vacuum filtration onto 0.3% polyethyleneimine soaked filter mats using Filtermate harvester. Scintilation cocktail is then melted onto microwave-dried filters on a hot plate and the radio activity is counted in Microbia counter.

[8] = target: D(2) dopamine receptor (Homo sapiens) (UniProt P14416)
Description: PDSP Primary Binding target: DRD2 - Compounds are tested at 10 uM concentration, plate are incubated at room temperature in the dark for 90 minutes. Reaction are stopped by vacuum filtration onto 0.3% polyethyleneimine soaked filter mats using Filtermate harvester. Scintilation cocktail is then melted onto microwave-dried filters on a hot plate and the radio activity is counted in Microbia counter.

[9] = target: 5-hydroxytryptamine receptor 1B (Homo sapiens) (UniProt P28222)
Description: PDSP Primary Binding target: HTR1B - Compounds are tested at 10 uM concentration, plate are incubated at room temperature in the dark for 90 minutes. Reaction are stopped by vacuum filtration onto 0.3% polyethyleneimine soaked filter mats using Filtermate harvester. Scintilation cocktail is then melted onto microwave-dried filters on a hot plate and the radio activity is counted in Microbia counter.

[10] = target: T3, 5-hydroxytryptamine receptor 1A (Homo sapiens) (UniProt P08908)
T3 sequence (whole entry): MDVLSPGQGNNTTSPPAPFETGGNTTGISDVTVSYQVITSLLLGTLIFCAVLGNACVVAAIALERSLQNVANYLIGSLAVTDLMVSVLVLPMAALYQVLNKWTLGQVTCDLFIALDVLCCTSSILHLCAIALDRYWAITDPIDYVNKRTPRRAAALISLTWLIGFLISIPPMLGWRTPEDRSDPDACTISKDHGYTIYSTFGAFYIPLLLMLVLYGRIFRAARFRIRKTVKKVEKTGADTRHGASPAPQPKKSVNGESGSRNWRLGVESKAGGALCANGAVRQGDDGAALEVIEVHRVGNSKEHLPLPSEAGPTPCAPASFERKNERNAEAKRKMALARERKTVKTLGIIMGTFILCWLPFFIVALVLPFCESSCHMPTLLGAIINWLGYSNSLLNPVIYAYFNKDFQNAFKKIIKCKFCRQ
Description: PDSP Primary Binding target: HTR1A - Compounds are tested at 10 uM concentration, plate are incubated at room temperature in the dark for 90 minutes. Reaction are stopped by vacuum filtration onto 0.3% polyethyleneimine soaked filter mats using Filtermate harvester. Scintilation cocktail is then melted onto microwave-dried filters on a hot plate and the radio activity is counted in Microbia counter.

[11] = target: Translocator protein (Homo sapiens) (UniProt P30536)
Description: PDSP Primary Binding target: TSPO - Compounds are tested at 10 uM concentration, plate are incubated at room temperature in the dark for 90 minutes. Reaction are stopped by vacuum filtration onto 0.3% polyethyleneimine soaked filter mats using Filtermate harvester. Scintilation cocktail is then melted onto microwave-dried filters on a hot plate and the radio activity is counted in Microbia counter.

[12] = target: T4, Muscarinic acetylcholine receptor M2 (Homo sapiens) (UniProt P08172)
T4 sequence (whole entry): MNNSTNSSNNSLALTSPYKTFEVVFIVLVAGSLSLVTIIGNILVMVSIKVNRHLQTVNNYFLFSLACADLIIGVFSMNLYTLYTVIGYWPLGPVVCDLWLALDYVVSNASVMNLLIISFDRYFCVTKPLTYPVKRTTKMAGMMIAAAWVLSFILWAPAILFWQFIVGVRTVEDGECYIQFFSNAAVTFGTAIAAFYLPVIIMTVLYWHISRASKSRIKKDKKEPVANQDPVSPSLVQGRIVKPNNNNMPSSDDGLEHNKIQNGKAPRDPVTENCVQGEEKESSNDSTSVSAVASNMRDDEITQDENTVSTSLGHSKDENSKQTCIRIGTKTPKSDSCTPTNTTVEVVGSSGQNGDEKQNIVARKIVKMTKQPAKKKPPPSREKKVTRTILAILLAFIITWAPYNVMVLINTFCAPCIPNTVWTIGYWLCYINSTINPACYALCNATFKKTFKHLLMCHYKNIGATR
Description: PDSP Primary Binding target: CHRM2 - Compounds are tested at 10 uM concentration, plate are incubated at room temperature in the dark for 90 minutes. Reaction are stopped by vacuum filtration onto 0.3% polyethyleneimine soaked filter mats using Filtermate harvester. Scintilation cocktail is then melted onto microwave-dried filters on a hot plate and the radio activity is counted in Microbia counter.

[13] = target: Sodium-dependent dopamine transporter (Homo sapiens) (UniProt Q01959)
Description: PDSP Primary Binding target: SLC6A3 - Compounds are tested at 10 uM concentration, plate are incubated at room temperature in the dark for 90 minutes. Reaction are stopped by vacuum filtration onto 0.3% polyethyleneimine soaked filter mats using Filtermate harvester. Scintilation cocktail is then melted onto microwave-dried filters on a hot plate and the radio activity is counted in Microbia counter.

[14] = target: Beta-3 adrenergic receptor (Homo sapiens) (UniProt P13945)
Description: PDSP Primary Binding target: ADRB3 - Compounds are tested at 10 uM concentration, plate are incubated at room temperature in the dark for 90 minutes. Reaction are stopped by vacuum filtration onto 0.3% polyethyleneimine soaked filter mats using Filtermate harvester. Scintilation cocktail is then melted onto microwave-dried filters on a hot plate and the radio activity is counted in Microbia counter.

[15] = target: 5-hydroxytryptamine receptor 7 (Homo sapiens) (UniProt P34969)
Description: PDSP Primary Binding target: HTR7 - Compounds are tested at 10 uM concentration, plate are incubated at room temperature in the dark for 90 minutes. Reaction are stopped by vacuum filtration onto 0.3% polyethyleneimine soaked filter mats using Filtermate harvester. Scintilation cocktail is then melted onto microwave-dried filters on a hot plate and the radio activity is counted in Microbia counter.

[16] = target: 5-hydroxytryptamine receptor 5A (Homo sapiens) (UniProt P47898)
Description: PDSP Primary Binding target: HTR5A - Compounds are tested at 10 uM concentration, plate are incubated at room temperature in the dark for 90 minutes. Reaction are stopped by vacuum filtration onto 0.3% polyethyleneimine soaked filter mats using Filtermate harvester. Scintilation cocktail is then melted onto microwave-dried filters on a hot plate and the radio activity is counted in Microbia counter.

Sodium-dependent dopamine transporter (Homo sapiens), sequence (Q01959 whole entry): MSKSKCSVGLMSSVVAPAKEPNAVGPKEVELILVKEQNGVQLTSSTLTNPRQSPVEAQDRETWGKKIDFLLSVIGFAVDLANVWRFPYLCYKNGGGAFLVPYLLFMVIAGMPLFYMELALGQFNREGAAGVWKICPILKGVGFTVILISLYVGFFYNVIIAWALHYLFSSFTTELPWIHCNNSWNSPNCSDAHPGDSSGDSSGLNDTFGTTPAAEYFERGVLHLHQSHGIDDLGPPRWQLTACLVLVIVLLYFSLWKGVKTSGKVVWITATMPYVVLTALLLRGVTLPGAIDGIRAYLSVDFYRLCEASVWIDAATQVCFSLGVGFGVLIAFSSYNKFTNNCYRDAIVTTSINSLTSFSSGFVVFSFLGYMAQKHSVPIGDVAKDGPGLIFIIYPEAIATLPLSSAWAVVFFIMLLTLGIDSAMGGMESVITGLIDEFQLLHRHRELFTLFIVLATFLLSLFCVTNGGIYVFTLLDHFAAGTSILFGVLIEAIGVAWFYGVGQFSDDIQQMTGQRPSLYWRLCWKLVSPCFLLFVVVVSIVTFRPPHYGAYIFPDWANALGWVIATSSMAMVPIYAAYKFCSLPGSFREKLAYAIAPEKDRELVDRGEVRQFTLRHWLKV
Histamine H1 receptor (Homo sapiens), sequence (P35367 whole entry): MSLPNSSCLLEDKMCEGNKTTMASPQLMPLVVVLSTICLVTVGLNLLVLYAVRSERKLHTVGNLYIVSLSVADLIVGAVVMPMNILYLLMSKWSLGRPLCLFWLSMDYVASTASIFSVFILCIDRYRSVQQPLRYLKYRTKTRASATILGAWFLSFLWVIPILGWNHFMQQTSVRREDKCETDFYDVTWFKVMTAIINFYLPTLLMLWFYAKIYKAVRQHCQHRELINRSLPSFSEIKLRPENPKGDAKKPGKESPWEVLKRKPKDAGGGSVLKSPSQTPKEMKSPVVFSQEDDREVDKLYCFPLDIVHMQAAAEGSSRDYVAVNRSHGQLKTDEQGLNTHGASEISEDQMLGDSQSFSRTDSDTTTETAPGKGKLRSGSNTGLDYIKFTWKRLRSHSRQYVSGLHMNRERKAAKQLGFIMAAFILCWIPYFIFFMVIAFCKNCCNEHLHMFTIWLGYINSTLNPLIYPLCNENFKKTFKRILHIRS
D(2) dopamine receptor (Homo sapiens), sequence (P14416 whole entry): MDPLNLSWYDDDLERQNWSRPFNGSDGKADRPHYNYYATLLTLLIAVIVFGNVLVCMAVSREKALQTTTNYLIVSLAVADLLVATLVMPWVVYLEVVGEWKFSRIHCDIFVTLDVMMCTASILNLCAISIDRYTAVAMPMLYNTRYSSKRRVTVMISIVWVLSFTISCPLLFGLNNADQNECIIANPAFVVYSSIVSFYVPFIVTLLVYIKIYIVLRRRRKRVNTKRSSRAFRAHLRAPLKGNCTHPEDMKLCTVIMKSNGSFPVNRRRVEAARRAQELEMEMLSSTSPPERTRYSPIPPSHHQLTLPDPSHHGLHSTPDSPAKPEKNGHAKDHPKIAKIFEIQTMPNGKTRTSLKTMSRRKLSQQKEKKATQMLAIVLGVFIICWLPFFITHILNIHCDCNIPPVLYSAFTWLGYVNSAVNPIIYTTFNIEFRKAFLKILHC
Beta-3 adrenergic receptor (Homo sapiens), sequence (P13945 whole entry, looked up): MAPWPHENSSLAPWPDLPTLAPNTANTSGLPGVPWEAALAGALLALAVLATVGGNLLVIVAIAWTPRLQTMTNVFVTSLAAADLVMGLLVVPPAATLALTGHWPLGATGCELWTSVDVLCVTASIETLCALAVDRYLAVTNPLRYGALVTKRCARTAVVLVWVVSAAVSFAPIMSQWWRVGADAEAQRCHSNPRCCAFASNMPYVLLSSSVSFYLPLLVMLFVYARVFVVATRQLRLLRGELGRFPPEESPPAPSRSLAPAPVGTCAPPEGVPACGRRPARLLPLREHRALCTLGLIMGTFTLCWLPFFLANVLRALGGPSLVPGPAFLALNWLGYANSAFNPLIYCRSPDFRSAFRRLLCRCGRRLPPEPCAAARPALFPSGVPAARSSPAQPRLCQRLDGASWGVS
5-hydroxytryptamine receptor 7 (Homo sapiens), sequence (P34969 whole entry): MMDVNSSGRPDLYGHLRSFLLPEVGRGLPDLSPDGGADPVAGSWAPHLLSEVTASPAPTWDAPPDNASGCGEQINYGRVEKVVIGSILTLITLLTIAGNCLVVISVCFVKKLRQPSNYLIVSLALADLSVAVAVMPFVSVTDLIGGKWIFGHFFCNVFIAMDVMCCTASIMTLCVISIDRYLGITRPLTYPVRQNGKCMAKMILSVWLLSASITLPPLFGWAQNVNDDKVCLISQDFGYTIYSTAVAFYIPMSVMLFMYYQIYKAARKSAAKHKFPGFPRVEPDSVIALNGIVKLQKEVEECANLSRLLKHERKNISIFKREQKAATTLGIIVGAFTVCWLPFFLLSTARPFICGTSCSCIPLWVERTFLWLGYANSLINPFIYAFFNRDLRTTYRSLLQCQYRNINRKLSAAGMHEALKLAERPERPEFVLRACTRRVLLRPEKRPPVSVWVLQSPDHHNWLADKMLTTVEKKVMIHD
D(3) dopamine receptor (Homo sapiens), sequence (P35462 whole entry): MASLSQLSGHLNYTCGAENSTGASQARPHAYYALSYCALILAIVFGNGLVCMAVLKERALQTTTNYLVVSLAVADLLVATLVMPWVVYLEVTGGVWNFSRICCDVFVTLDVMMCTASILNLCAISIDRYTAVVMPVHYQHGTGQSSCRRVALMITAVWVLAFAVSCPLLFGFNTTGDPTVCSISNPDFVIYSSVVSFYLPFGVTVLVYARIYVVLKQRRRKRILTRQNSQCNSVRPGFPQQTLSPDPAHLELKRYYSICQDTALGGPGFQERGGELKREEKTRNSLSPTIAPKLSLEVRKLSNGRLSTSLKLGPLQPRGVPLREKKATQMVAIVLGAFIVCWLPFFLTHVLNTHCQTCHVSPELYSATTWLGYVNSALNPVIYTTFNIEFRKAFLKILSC
Translocator protein (Homo sapiens), sequence (P30536 whole entry): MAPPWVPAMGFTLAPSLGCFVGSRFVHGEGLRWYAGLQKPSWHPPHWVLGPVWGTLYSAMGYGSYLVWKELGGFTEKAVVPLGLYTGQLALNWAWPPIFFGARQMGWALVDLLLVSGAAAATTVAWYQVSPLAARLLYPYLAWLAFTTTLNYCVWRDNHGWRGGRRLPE
Sodium-dependent serotonin transporter (Homo sapiens), sequence (P31645 whole entry, looked up): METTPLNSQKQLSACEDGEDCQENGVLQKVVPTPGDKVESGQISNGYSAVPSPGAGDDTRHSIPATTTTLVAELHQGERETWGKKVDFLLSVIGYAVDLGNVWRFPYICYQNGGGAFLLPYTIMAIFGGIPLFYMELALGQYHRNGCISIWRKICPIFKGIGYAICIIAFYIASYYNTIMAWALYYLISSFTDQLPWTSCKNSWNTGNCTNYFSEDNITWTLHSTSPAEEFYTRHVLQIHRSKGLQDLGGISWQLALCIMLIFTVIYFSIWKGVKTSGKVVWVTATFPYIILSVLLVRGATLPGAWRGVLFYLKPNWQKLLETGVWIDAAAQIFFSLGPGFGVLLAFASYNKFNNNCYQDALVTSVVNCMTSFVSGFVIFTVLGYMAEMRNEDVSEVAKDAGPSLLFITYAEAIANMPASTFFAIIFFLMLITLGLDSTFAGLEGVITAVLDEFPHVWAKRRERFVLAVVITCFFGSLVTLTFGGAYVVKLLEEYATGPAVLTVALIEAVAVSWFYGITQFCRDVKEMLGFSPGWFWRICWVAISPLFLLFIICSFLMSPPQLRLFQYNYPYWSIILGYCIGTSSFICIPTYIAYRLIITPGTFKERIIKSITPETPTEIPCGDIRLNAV
5-hydroxytryptamine receptor 1B (Homo sapiens), sequence (P28222 whole entry): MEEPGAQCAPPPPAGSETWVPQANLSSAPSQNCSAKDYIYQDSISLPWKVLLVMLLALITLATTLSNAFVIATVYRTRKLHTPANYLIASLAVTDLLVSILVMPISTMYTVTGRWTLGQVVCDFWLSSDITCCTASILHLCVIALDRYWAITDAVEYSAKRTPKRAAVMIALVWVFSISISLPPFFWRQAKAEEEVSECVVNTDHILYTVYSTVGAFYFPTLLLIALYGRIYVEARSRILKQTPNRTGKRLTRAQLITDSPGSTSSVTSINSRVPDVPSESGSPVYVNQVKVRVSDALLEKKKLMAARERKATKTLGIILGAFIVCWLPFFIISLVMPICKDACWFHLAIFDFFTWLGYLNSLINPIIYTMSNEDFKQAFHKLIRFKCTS
Histamine H2 receptor (Homo sapiens), sequence (P25021 whole entry): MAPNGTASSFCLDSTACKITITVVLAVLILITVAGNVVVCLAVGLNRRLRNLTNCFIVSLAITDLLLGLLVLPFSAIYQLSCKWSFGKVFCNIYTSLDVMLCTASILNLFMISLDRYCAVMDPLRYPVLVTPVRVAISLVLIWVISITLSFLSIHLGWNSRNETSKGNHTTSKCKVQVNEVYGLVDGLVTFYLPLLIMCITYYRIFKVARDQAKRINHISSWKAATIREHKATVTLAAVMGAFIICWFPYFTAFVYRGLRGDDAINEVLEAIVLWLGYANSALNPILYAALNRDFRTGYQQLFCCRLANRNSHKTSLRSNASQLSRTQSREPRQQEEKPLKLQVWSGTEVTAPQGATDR
Sigma non-opioid intracellular receptor 1 (Homo sapiens), sequence (Q99720 whole entry): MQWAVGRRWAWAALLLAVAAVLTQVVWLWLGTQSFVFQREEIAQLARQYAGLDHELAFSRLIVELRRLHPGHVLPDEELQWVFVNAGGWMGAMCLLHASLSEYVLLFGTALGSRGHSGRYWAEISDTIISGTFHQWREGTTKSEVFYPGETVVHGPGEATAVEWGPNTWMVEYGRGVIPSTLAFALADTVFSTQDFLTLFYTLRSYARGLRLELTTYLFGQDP

| SMILES | inhibition [1] | inhibition [2] | inhibition [3] | inhibition [4] | inhibition [5] | inhibition [6] | inhibition [7] | inhibition [8] | inhibition [9] | inhibition [10] | inhibition [11] | inhibition [12] | inhibition [13] | inhibition [14] | inhibition [15] | inhibition [16] |
| --- | --- | --- | --- | --- | --- | --- | --- | --- | --- | --- | --- | --- | --- | --- | --- | --- |
| COc1ccc(CNC(=O)c2cc(-c3cncc(Cl)c3)cnc2-c2ccccn2)nc1OC | 7.89% | -2.32% | 23.7% | -5.76% | 0.79% | 17.4% | 7.09% | 17.4% | -4.47% | -8.5% | 17.5% | 10.6% | 36.3% |  |  |  |
| CC(C)Oc1ccccc1C(=O)Nc1ccccc1C(=O)Nc1cccc(S(=O)(=O)C(F)(F)F)c1 | 23.1% |  |  | 36% | -4.83% | 2.1% |  | 7.06% |  | 6.76% | 66.1% | -6.99% |  | 1.49% | -3.5% |  |
| Cc1nc(-c2ccc(C(F)(F)F)cc2)sc1COc1ccc([C@H](CC(=O)O)c2ccon2)cc1 | 42.1% | 37.7% | 21.4% | 15.9% |  |  | 2.28% | 16.7% |  |  | 11.6% | 25.2% | 51.1% |  | 4.07% | 26.8% |
| O=C1O[C@]2(CC[C@H](C(=O)Nc3ccn(-c4ccccc4F)n3)CC2)c2cnccc21 | 73.2% | 4.97% |  | 2.76% | -6.98% | 7.78% |  | 10.1% | -3.32% | 19.7% | 1.2% | -5.81% |  | 3.84% |  |  |
| CC1=C2C[C@H]3[C@@H](CC=C4C[C@@H](O)CC[C@@]43C)[C@@H]2CC[C@]12O[C@@H]1C[C@H](C)CN[C@H]1[C@H]2C | 19.6% | 10.2% |  | 20.5% |  | 40.4% |  | 13.2% |  | 9.39% | 13.5% | -1.88% |  | 38.6% |  |  |
| COc1cccc(-c2c(C)n(Cc3c(F)cccc3C(F)(F)F)c(=O)n(C[C@H](NCCCC(=O)O)c3ccccc3)c2=O)c1F | 21.6% | 2.12% |  |  |  | 9.07% | -3.99% | 30.2% | 15.5% | -2.18% | 15.8% | 3.22% |  | 44.5% | 34.2% | 35.8% |
| C[C@]1(C(=O)N(CCCC(=O)O)Cc2cccc(Cl)c2)CCN1C(=O)c1csc2ccccc12 | 29% | 32.5% |  | 19.3% | -2.06% | 15.4% |  | -7.68% |  |  | 5.72% |  | 13% | -0.98% |  | -1.31% |
| CC(C)NC(=O)c1ccc(C#Cc2ccncc2)cn1 | 26.8% | 68.4% |  | 25.7% | 43.2% |  |  | -3.71% |  |  |  | 53.1% | 24.2% | 29.8% |  |  |
| CCCNS(=O)(=O)Nc1ncnc(OCCOc2ncc(Br)cn2)c1-c1ccc(Br)cc1 | 54.8% | 15.8% | 67.2% |  | 11.6% | 11.5% | -8.41% | 15.2% | -0.31% | 9.06% | 51.2% | -6.56% | 31.1% | 42.6% |  |  |
| CCOC(=O)c1cc(C#N)c(N2CCC(C(=O)NS(=O)(=O)Cc3ccccc3)CC2)nc1C | 50.8% | 44.3% |  | 17.2% | 28.6% | -6.11% | -0.84% | 13.7% |  |  |  | 68.1% | 32.9% | 21.2% |  | -2.81% |
